Source: patent US6355799B1, “Substituted benzene compounds, process for their preparation, and herbicidal and defoliant compositions containing them” (ISK Americas Incorporated, priority 1997, dated 2002)

What was measured:
Format in all cases: in vivo
[1] = tested on: redroot pigweed (Amaranthus retroflexus, AMARE); experiment: Pre-emerge test, greenhouse herbicide activity screening; details: pre-emerge, 14 days after application
Summary of the method: (§1)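 Herbicidal damage is scored 0 (none) to 100 (complete plant death) two weeks after a simulated field spray. Rates span 15–1000 g ai/ha, delivered in acetone at 187 l/ha. For post-emergence treatments, plants have 2–3 leaves and the spray carries 0.25% v/v non-ionic surfactant.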

[2] = tested on: lambsquarters (Chenopodium album, CHEAL); experiment: as above; details: pre-emerge, 14 days after application
Summary of the method: as §1

[3] = tested on: ivyleaf morningglory (Ipomoea hederacea, IPOHE); experiment: as above; details: pre-emerge, 14 days after application
Summary of the method: as §1

[4] = tested on: sicklepod (Cassia obtusifolia, CASOB); experiment: as above; details: pre-emerge, 14 days after application
Summary of the method: as §1

[5] = tested on: green foxtail (Setaria viridis, SETVI); experiment: as above; details: pre-emerge, 14 days after application
Summary of the method: as §1

[6] = tested on: barnyardgrass (Echinochloa crus-galli, ECHCG); experiment: as above; details: pre-emerge, 14 days after application
Summary of the method: as §1

[7] = tested on: johnsongrass (Sorghum halepense, SORHA); experiment: as above; details: pre-emerge, 14 days after application
Summary of the method: as §1

[8] = tested on: large crabgrass (Digitaria sanguinalis, DIGSA); experiment: as above; details: pre-emerge, 14 days after application
Summary of the method: as §1

[9] = tested on: velvetleaf (Abutilon theophrasti, ABUTH); experiment: as above; details: pre-emerge, 14 days after application
Summary of the method: as §1

[10] = tested on: lambsquarters (Chenopodium album, CHEAL); experiment: Post-emerge test, greenhouse herbicide activity screening; details: post-emerge, 14 days after application, rating scale 0-100
Summary of the method: (§2)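 Sandy loam pots; pre-emerge: sown 1 d pre-spray, surface-watered after, then bottom-watered. Post-emerge: sown 8–21 d before, 2–3 leaf stage, + 0.25% v/v NIS, bottom-watered. Acetone, 187 l/ha track spray, 15–1000 g ai/ha. 0–100 injury score, day 14.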

[11] = tested on: ivyleaf morningglory (Ipomoea hederacea, IPOHE); experiment: as above; details: post-emerge, 14 days after application, rating scale 0-100
Summary of the method: as §2

[12] = tested on: sicklepod (Cassia obtusifolia, CASOB); experiment: as above; details: post-emerge, 14 days after application, rating scale 0-100
Summary of the method: as §2

[13] = tested on: green foxtail (Setaria viridis, SETVI); experiment: as above; details: post-emerge, 14 days after application, rating scale 0-100
Summary of the method: as §2

[14] = tested on: barnyardgrass (Echinochloa crus-galli, ECHCG); experiment: as above; details: post-emerge, 14 days after application, rating scale 0-100
Summary of the method: as §2

[15] = tested on: redroot pigweed (Amaranthus retroflexus, AMARE); experiment: as above; details: post-emerge, 14 days after application
Summary of the method: as §2

[16] = tested on: johnsongrass (Sorghum halepense, SORHA); experiment: as above; details: post-emerge, 14 days after application, rating scale 0-100
Summary of the method: as §2

[17] = tested on: large crabgrass (Digitaria sanguinalis, DIGSA); experiment: as above; details: post-emerge, 14 days after application, rating scale 0-100
Summary of the method: as §2

[18] = tested on: velvetleaf (Abutilon theophrasti, ABUTH); experiment: as above; details: post-emerge, 14 days after application, rating scale 0-100
Summary of the method: as §2

[19] = tested on: field corn (Zea mays L., var. Dekalb 535, CORN); experiment: Pre-emerge test, crop safety; details: pre-emerge, 14 days after application; for phytotoxicity rating CORN: rating scale 0-100
Summary of the method: (§3)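 Rating: 0–100 visual injury, 14 DAA. Application: acetone, 187 l/ha, 15–1000 g ai/ha, flat-fan track sprayer with nozzle 40–45 cm above soil or canopy. Post-emerge runs used 0.25% v/v surfactant on 2–3 leaf plants.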

[20] = tested on: upland rice (Oryza sp., var. Tebonnet, RICE); experiment: Pre-emerge test, crop safety; details: pre-emerge, 14 days after application; for phytotoxicity rating RICE (crop damage): scale 0-100; for phytotoxicity rating RICE: rating scale 0-100
Summary of the method: as §3

[21] = tested on: field corn (Zea mays L., var. Dekalb 535, CORN); experiment: Post-emerge test, crop safety; details: post-emerge, 14 days after application, rating scale 0-100
Summary of the method: as §1

[22] = tested on: upland rice (Oryza sp., var. Tebonnet, RICE); experiment: Post-emerge test, crop safety; details: post-emerge, 14 days after application, rating scale 0-100
Summary of the method: as §1

[23] = 250 g ai/ha, rating scale 0-100

COc1c(Cl)cc(F)c(-n2c(=O)cc(C(F)(F)F)n(C)c2=O)c1NC(=O)CSC [2-168]
phytotoxicity rating AMARE ([1]; 63 g ai/ha, scale 0-100): 90 | phytotoxicity rating AMARE ([1]; 250 g ai/ha, scale 0-100): 100 | phytotoxicity rating CHEAL ([2]; 63 g ai/ha, scale 0-100): 100 | phytotoxicity rating CHEAL ([2]; 250 g ai/ha, scale 0-100): 100 | phytotoxicity rating IPOHE ([3]; 63 g ai/ha, scale 0-100): 40 | phytotoxicity rating IPOHE ([3]; 250 g ai/ha, scale 0-100): 90 | phytotoxicity rating CASOB ([4]; 63 g ai/ha, scale 0-100): 30 | phytotoxicity rating CASOB ([4]; 250 g ai/ha, scale 0-100): 80 | phytotoxicity rating SETVI ([5]; 63 g ai/ha, scale 0-100): 10 | phytotoxicity rating SETVI ([5]; 250 g ai/ha, scale 0-100): 95 | phytotoxicity rating ECHCG ([6]; 63 g ai/ha, scale 0-100): 0 | phytotoxicity rating ECHCG ([6]; 250 g ai/ha, scale 0-100): 20 | phytotoxicity rating SORHA ([7]; 63 g ai/ha, scale 0-100): 0 | phytotoxicity rating SORHA ([7]; 250 g ai/ha, scale 0-100): 90 | phytotoxicity rating DIGSA ([8]; 63 g ai/ha, scale 0-100): 0 | phytotoxicity rating DIGSA ([8]; 250 g ai/ha, scale 0-100): 80 | phytotoxicity rating ABUTH ([9]; 63 g ai/ha, scale 0-100): 60 | phytotoxicity rating ABUTH ([9]; 250 g ai/ha, scale 0-100): 100 | CHEAL phytotoxicity rating ([10]; 63 g ai/ha): 30 | CHEAL phytotoxicity rating ([10]; 250 g ai/ha): 50 | IPOHE phytotoxicity rating ([11]; 63 g ai/ha): 60 | IPOHE phytotoxicity rating ([11]; 250 g ai/ha): 100 | CASOB phytotoxicity rating ([12]; 63 g ai/ha): 0 | CASOB phytotoxicity rating ([12]; 250 g ai/ha): 80 | SETVI phytotoxicity rating ([13]; 63 g ai/ha): 0 | SETVI phytotoxicity rating ([13]; 250 g ai/ha): 10 | ECHCG phytotoxicity rating ([14]; 63 g ai/ha): 0 | ECHCG phytotoxicity rating ([14]; 250 g ai/ha): 0 | AMARE phytotoxicity rating ([15]; 63 g ai/ha, rating scale 0-100): 20 | AMARE phytotoxicity rating [15, 23]: 50 | SORHA phytotoxicity rating ([16]; 63 g ai/ha): 0 | SORHA phytotoxicity rating ([16]; 250 g ai/ha): 0 | DIGSA phytotoxicity rating ([17]; 63 g ai/ha): 0 | DIGSA phytotoxicity rating ([17]; 250 g ai/ha): 0 | ABUTH phytotoxicity rating ([18]; 63 g ai/ha): 60 | ABUTH phytotoxicity rating ([18]; 250 g ai/ha): 100 | phytotoxicity rating CORN (crop damage) ([19]; 63 g ai/ha, scale 0-100): 0 | phytotoxicity rating RICE (crop damage) ([20]; 63 g ai/ha): 20 | phytotoxicity rating RICE (crop damage) ([20]; 250 g ai/ha): 60 | CORN phytotoxicity rating (crop damage) ([21]; 63 g ai/ha): 5 | CORN phytotoxicity rating (crop damage) ([21]; 250 g ai/ha): 10 | RICE phytotoxicity rating (crop damage) ([22]; 63 g ai/ha): 10 | RICE phytotoxicity rating (crop damage) ([22]; 250 g ai/ha): 30

COc1c(Cl)cc(F)c(-n2c(=O)cc(C(F)(F)F)n(C)c2=O)c1SC [Compound 17-1, 3-(4-chloro-6-fluoro-3-methoxy-2-thiomethylphenyl)l-methyl-6-trifluoromethyl-2,4(1H, 3H)-pyrimidinedione]
phytotoxicity rating AMARE ([1]; 63 g ai/ha, rating scale 0-100): 30 | phytotoxicity rating AMARE [1, 23]: 90 | phytotoxicity rating CHEAL ([2]; 63 g ai/ha, rating scale 0-100): 90 | phytotoxicity rating CHEAL [2, 23]: 100 | phytotoxicity rating IPOHE ([3]; 63 g ai/ha, rating scale 0-100): 10 | phytotoxicity rating IPOHE [3, 23]: 70 | phytotoxicity rating CASOB ([4]; 63 g ai/ha, rating scale 0-100): 0 | phytotoxicity rating CASOB [4, 23]: 80 | phytotoxicity rating SETVI ([5]; 63 g ai/ha, rating scale 0-100): 50 | phytotoxicity rating SETVI [5, 23]: 80 | phytotoxicity rating ECHCG ([6]; 63 g ai/ha, rating scale 0-100): 0 | phytotoxicity rating ECHCG [6, 23]: 70 | phytotoxicity rating SORHA ([7]; 63 g ai/ha, rating scale 0-100): 0 | phytotoxicity rating SORHA [7, 23]: 60 | phytotoxicity rating DIGSA ([8]; 63 g ai/ha, rating scale 0-100): 20 | phytotoxicity rating DIGSA [8, 23]: 80 | phytotoxicity rating ABUTH ([9]; 63 g ai/ha, rating scale 0-100): 95 | phytotoxicity rating ABUTH [9, 23]: 100 | Post-emerge Herbicidal Activity CHEAL (phytotoxicity rating) ([10]; 63 g ai/ha): 30 | Post-emerge Herbicidal Activity CHEAL (phytotoxicity rating) ([10]; 250 g ai/ha): 60 | Post-emerge Herbicidal Activity IPOHE (phytotoxicity rating) ([11]; 63 g ai/ha): 80 | Post-emerge Herbicidal Activity IPOHE (phytotoxicity rating) ([11]; 250 g ai/ha): 80 | Post-emerge Herbicidal Activity CASOB (phytotoxicity rating) ([12]; 63 g ai/ha): 20 | Post-emerge Herbicidal Activity CASOB (phytotoxicity rating) ([12]; 250 g ai/ha): 10 | Post-emerge Herbicidal Activity SETVI (phytotoxicity rating) ([13]; 63 g ai/ha): 0 | Post-emerge Herbicidal Activity SETVI (phytotoxicity rating) ([13]; 250 g ai/ha): 0 | Post-emerge Herbicidal Activity ECHCG (phytotoxicity rating) ([14]; 63 g ai/ha): 0 | Post-emerge Herbicidal Activity ECHCG (phytotoxicity rating) ([14]; 250 g ai/ha): 0 | Post-emerge Herbicidal Activity AMARE (phytotoxicity rating) ([15]; 63 g ai/ha, rating scale 0-100 (0 no damage, 100 complete death)): 10 | Post-emerge Herbicidal Activity AMARE (phytotoxicity rating) [15, 23]: 30 | Post-emerge Herbicidal Activity SORHA (phytotoxicity rating) ([16]; 63 g ai/ha): 0 | Post-emerge Herbicidal Activity SORHA (phytotoxicity rating) ([16]; 250 g ai/ha): 0 | Post-emerge Herbicidal Activity DIGSA (phytotoxicity rating) ([17]; 63 g ai/ha): 0 | Post-emerge Herbicidal Activity DIGSA (phytotoxicity rating) ([17]; 250 g ai/ha): 0 | Post-emerge Herbicidal Activity ABUTH (phytotoxicity rating) ([18]; 63 g ai/ha): 70 | Post-emerge Herbicidal Activity ABUTH (phytotoxicity rating) ([18]; 250 g ai/ha): 70 | phytotoxicity rating CORN ([19]; 63 g ai/ha): 0 | phytotoxicity rating CORN ([19]; 250 g ai/ha): 10 | phytotoxicity rating RICE ([20]; 63 g ai/ha): 10 | phytotoxicity rating RICE ([20]; 250 g ai/ha): 30 | Post-emerge Herbicidal Activity CORN (crop damage rating) ([21]; 63 g ai/ha): 0 | Post-emerge Herbicidal Activity CORN (crop damage rating) ([21]; 250 g ai/ha): 5 | Post-emerge Herbicidal Activity RICE (crop damage rating) ([22]; 63 g ai/ha): 0 | Post-emerge Herbicidal Activity RICE (crop damage rating) ([22]; 250 g ai/ha): 0
